Measurements published in ChEMBL document CHEMBL4396865, “Current advances of triazole alcohols derived from fluconazole: Design, in vitro and in silico studies” (2019).
≈ marks a conversion by molar mass, not a printed value.

Experiments:
Format in all cases: functional
Candida albicans = assay: Antifungal activity against Candida albicans after 24 hrs by NCCLS protocol based method
Candida tropicalis = assay: Antifungal activity against Candida tropicalis after 24 hrs by NCCLS protocol based method
Cryptococcus neoformans = assay: Antifungal activity against Cryptococcus neoformans after 72 hrs by NCCLS protocol based method
Trichophyton rubrum = assay: Antifungal activity against Trichophyton rubrum after 7 days by NCCLS protocol based method; settings: 168 h
Candida parapsilosis = assay: Antifungal activity against Candida parapsilosis after 24 hrs by NCCLS protocol based method; settings: Lodderomyces parapsilosis
Fonsecaea compacta = assay: Antifungal activity against Fonsecaea compacta after 24 hrs by NCCLS protocol based method
Nannizzia gypsea = assay: Antifungal activity against Microsporum gypseum after 7 days by NCCLS protocol based method; settings: 168 h

| Compound | MIC80 (Candida albicans) | MIC80 (Candida tropicalis) | MIC80 (Cryptococcus neoformans) | MIC80 (Trichophyton rubrum) | MIC80 (Candida parapsilosis) | MIC80 (Fonsecaea compacta) | MIC (Candida albicans) | MIC (Candida tropicalis) | MIC (Cryptococcus neoformans) | MIC (Trichophyton rubrum) | MIC (Nannizzia gypsea) |
| --- | --- | --- | --- | --- | --- | --- | --- | --- | --- | --- | --- |
| Cc1ccc(OCCCN(C)CC(O)(Cn2cncn2)c2ccc(F)cc2F)cc1 (configuration not stated) |  |  |  |  |  |  | 1 ng/mL (≈ 2.4 nM) | 1 ng/mL (≈ 2.4 nM) | 1 ng/mL (≈ 2.4 nM) | 1 ng/mL (≈ 2.4 nM) | 1 ng/mL (≈ 2.4 nM) |
| CCCCCc1ccc(C(=O)OC2CCN(CC(O)(Cn3cncn3)c3ccc(F)cc3F)CC2)cc1 (configuration not stated) | 3.9 to 62.5 ng/mL (≈ 7.61 to 122 nM) | 3.9 to 62.5 ng/mL (≈ 7.61 to 122 nM) | 3.9 to 62.5 ng/mL (≈ 7.61 to 122 nM) | 3.9 to 62.5 ng/mL (≈ 7.61 to 122 nM) | 3.9 to 62.5 ng/mL (≈ 7.61 to 122 nM) | 3.9 to 62.5 ng/mL (≈ 7.61 to 122 nM) |  |  |  |  |  |
| CCC(C)n1ncn(-c2ccc(N3CCN(c4ccc(OCC5COC(Cn6cncn6)(c6ccc(Cl)cc6Cl)O5)cc4)CC3)cc2)c1=O (configuration not stated) [ITRACONAZOLE] |  |  |  |  |  |  | 62.5 ng/mL (≈ 88.6 nM) | 62.5 ng/mL (≈ 88.6 nM) | 62.5 ng/mL (≈ 88.6 nM) | 62.5 ng/mL (≈ 88.6 nM) | 62.5 ng/mL (≈ 88.6 nM) |
| COc1cccc(C(=O)OC2CCN(CC(O)(Cn3cncn3)c3ccc(F)cc3F)CC2)c1 (configuration not stated) | 3.9 to 62.5 ng/mL (≈ 8.25 to 132 nM) | 3.9 to 62.5 ng/mL (≈ 8.25 to 132 nM) | 3.9 to 62.5 ng/mL (≈ 8.25 to 132 nM) | 3.9 to 62.5 ng/mL (≈ 8.25 to 132 nM) | 3.9 to 62.5 ng/mL (≈ 8.25 to 132 nM) | 3.9 to 62.5 ng/mL (≈ 8.25 to 132 nM) |  |  |  |  |  |
| COc1ccc(C(=O)OC2CCN(CC(O)(Cn3cncn3)c3ccc(F)cc3F)CC2)cc1OC (configuration not stated) | 3.9 to 62.5 ng/mL (≈ 7.76 to 124 nM) | 3.9 to 62.5 ng/mL (≈ 7.76 to 124 nM) | 3.9 to 62.5 ng/mL (≈ 7.76 to 124 nM) | 3.9 to 62.5 ng/mL (≈ 7.76 to 124 nM) | 3.9 to 62.5 ng/mL (≈ 7.76 to 124 nM) | 3.9 to 62.5 ng/mL (≈ 7.76 to 124 nM) |  |  |  |  |  |
| CCCCc1ccc(C(=O)OC2CCN(CC(O)(Cn3cncn3)c3ccc(F)cc3F)CC2)cc1 (configuration not stated) | 3.9 to 62.5 ng/mL (≈ 7.82 to 125 nM) | 3.9 to 62.5 ng/mL (≈ 7.82 to 125 nM) | 3.9 to 62.5 ng/mL (≈ 7.82 to 125 nM) | 3.9 to 62.5 ng/mL (≈ 7.82 to 125 nM) | 3.9 to 62.5 ng/mL (≈ 7.82 to 125 nM) | 3.9 to 62.5 ng/mL (≈ 7.82 to 125 nM) |  |  |  |  |  |
| CN(CCCOc1ccccc1[N+](=O)[O-])CC(O)(Cn1cncn1)c1ccc(F)cc1F (configuration not stated) |  |  |  |  |  |  | 1 to 16 ng/mL (≈ 2.23 to 35.8 nM) | 1 to 16 ng/mL (≈ 2.23 to 35.8 nM) | 1 to 16 ng/mL (≈ 2.23 to 35.8 nM) | 1 to 16 ng/mL (≈ 2.23 to 35.8 nM) | 1 to 16 ng/mL (≈ 2.23 to 35.8 nM) |
| CN(CCCCOc1ccc([N+](=O)[O-])cc1)CC(O)(Cn1cncn1)c1ccc(F)cc1F (configuration not stated) |  |  |  |  |  |  | 1 ng/mL (≈ 2.17 nM) | 1 ng/mL (≈ 2.17 nM) | 1 ng/mL (≈ 2.17 nM) | 1 ng/mL (≈ 2.17 nM) | 1 ng/mL (≈ 2.17 nM) |
| CN(CCCCOc1cccc([N+](=O)[O-])c1)CC(O)(Cn1cncn1)c1ccc(F)cc1F (configuration not stated) |  |  |  |  |  |  | 1 to 16 ng/mL (≈ 2.17 to 34.7 nM) | 1 to 16 ng/mL (≈ 2.17 to 34.7 nM) | 1 to 16 ng/mL (≈ 2.17 to 34.7 nM) | 1 to 16 ng/mL (≈ 2.17 to 34.7 nM) | 1 to 16 ng/mL (≈ 2.17 to 34.7 nM) |
| CC(C)(C)c1ccc(C(=O)OC2CCN(CC(O)(Cn3cncn3)c3ccc(F)cc3F)CC2)cc1 (configuration not stated) | 3.9 to 62.5 ng/mL (≈ 7.82 to 125 nM) | 3.9 to 62.5 ng/mL (≈ 7.82 to 125 nM) | 3.9 to 62.5 ng/mL (≈ 7.82 to 125 nM) | 3.9 to 62.5 ng/mL (≈ 7.82 to 125 nM) | 3.9 to 62.5 ng/mL (≈ 7.82 to 125 nM) | 3.9 to 62.5 ng/mL (≈ 7.82 to 125 nM) |  |  |  |  |  |
| COc1ccc(C(=O)OC2CCN(CC(O)(Cn3cncn3)c3ccc(F)cc3F)CC2)cc1 (configuration not stated) | 3.9 to 62.5 ng/mL (≈ 8.25 to 132 nM) | 3.9 to 62.5 ng/mL (≈ 8.25 to 132 nM) | 3.9 to 62.5 ng/mL (≈ 8.25 to 132 nM) | 3.9 to 62.5 ng/mL (≈ 8.25 to 132 nM) | 3.9 to 62.5 ng/mL (≈ 8.25 to 132 nM) | 3.9 to 62.5 ng/mL (≈ 8.25 to 132 nM) |  |  |  |  |  |
| O=C(OC1CCN(CC(O)(Cn2cncn2)c2ccc(F)cc2F)CC1)c1cccc(C(F)(F)F)c1 (configuration not stated) | 3.9 to 62.5 ng/mL (≈ 7.64 to 122 nM) | 3.9 to 62.5 ng/mL (≈ 7.64 to 122 nM) | 3.9 to 62.5 ng/mL (≈ 7.64 to 122 nM) | 3.9 to 62.5 ng/mL (≈ 7.64 to 122 nM) | 3.9 to 62.5 ng/mL (≈ 7.64 to 122 nM) | 3.9 to 62.5 ng/mL (≈ 7.64 to 122 nM) |  |  |  |  |  |

The next lines start with the values.

| MIC80 (Candida albicans) | MIC80 (Candida tropicalis) | MIC80 (Cryptococcus neoformans) | MIC80 (Trichophyton rubrum) | MIC80 (Candida parapsilosis) | MIC80 (Fonsecaea compacta) | MIC (Candida albicans) | MIC (Candida tropicalis) | MIC (Cryptococcus neoformans) | MIC (Trichophyton rubrum) | MIC (Nannizzia gypsea) | Compound |
| --- | --- | --- | --- | --- | --- | --- | --- | --- | --- | --- | --- |
| 3.9 to 62.5 ng/mL (≈ 8 to 128 nM) | 3.9 to 62.5 ng/mL (≈ 8 to 128 nM) | 3.9 to 62.5 ng/mL (≈ 8 to 128 nM) | 3.9 to 62.5 ng/mL (≈ 8 to 128 nM) | 3.9 to 62.5 ng/mL (≈ 8 to 128 nM) | 3.9 to 62.5 ng/mL (≈ 8 to 128 nM) |  |  |  |  |  | O=C(OC1CCN(CC(O)(Cn2cncn2)c2ccc(F)cc2F)CC1)c1ccccc1[N+](=O)[O-] (configuration not stated) |
| 3.9 to 62.5 ng/mL (≈ 8.54 to 137 nM) | 3.9 to 62.5 ng/mL (≈ 8.54 to 137 nM) | 3.9 to 62.5 ng/mL (≈ 8.54 to 137 nM) | 3.9 to 62.5 ng/mL (≈ 8.54 to 137 nM) | 3.9 to 62.5 ng/mL (≈ 8.54 to 137 nM) | 3.9 to 62.5 ng/mL (≈ 8.54 to 137 nM) |  |  |  |  |  | Cc1ccccc1C(=O)OC1CCN(CC(O)(Cn2cncn2)c2ccc(F)cc2F)CC1 (configuration not stated) |
| 3.9 to 62.5 ng/mL (≈ 6.86 to 110 nM) | 3.9 to 62.5 ng/mL (≈ 6.86 to 110 nM) | 3.9 to 62.5 ng/mL (≈ 6.86 to 110 nM) | 3.9 to 62.5 ng/mL (≈ 6.86 to 110 nM) | 3.9 to 62.5 ng/mL (≈ 6.86 to 110 nM) | 3.9 to 62.5 ng/mL (≈ 6.86 to 110 nM) |  |  |  |  |  | O=C(OC1CCN(CC(O)(Cn2cncn2)c2ccc(F)cc2F)CC1)c1ccccc1I (configuration not stated) |
| 3.9 to 62.5 ng/mL (≈ 7.48 to 120 nM) | 3.9 to 62.5 ng/mL (≈ 7.48 to 120 nM) | 3.9 to 62.5 ng/mL (≈ 7.48 to 120 nM) | 3.9 to 62.5 ng/mL (≈ 7.48 to 120 nM) | 3.9 to 62.5 ng/mL (≈ 7.48 to 120 nM) | 3.9 to 62.5 ng/mL (≈ 7.48 to 120 nM) |  |  |  |  |  | O=C(OC1CCN(CC(O)(Cn2cncn2)c2ccc(F)cc2F)CC1)c1ccccc1Br (configuration not stated) |
| 3.9 to 62.5 ng/mL (≈ 8.47 to 136 nM) | 3.9 to 62.5 ng/mL (≈ 8.47 to 136 nM) | 3.9 to 62.5 ng/mL (≈ 8.47 to 136 nM) | 3.9 to 62.5 ng/mL (≈ 8.47 to 136 nM) | 3.9 to 62.5 ng/mL (≈ 8.47 to 136 nM) | 3.9 to 62.5 ng/mL (≈ 8.47 to 136 nM) |  |  |  |  |  | O=C(OC1CCN(CC(O)(Cn2cncn2)c2ccc(F)cc2F)CC1)c1ccc(F)cc1 (configuration not stated) |
| 3.9 to 62.5 ng/mL (≈ 7.63 to 122 nM) | 3.9 to 62.5 ng/mL (≈ 7.63 to 122 nM) | 3.9 to 62.5 ng/mL (≈ 7.63 to 122 nM) | 3.9 to 62.5 ng/mL (≈ 7.63 to 122 nM) | 3.9 to 62.5 ng/mL (≈ 7.63 to 122 nM) | 3.9 to 62.5 ng/mL (≈ 7.63 to 122 nM) |  |  |  |  |  | O=C(OC1CCN(CC(O)(Cn2cncn2)c2ccc(F)cc2F)CC1)c1ccc(Cl)cc1Cl (configuration not stated) |
| 3.9 to 62.5 ng/mL (≈ 8.47 to 136 nM) | 3.9 to 62.5 ng/mL (≈ 8.47 to 136 nM) | 3.9 to 62.5 ng/mL (≈ 8.47 to 136 nM) | 3.9 to 62.5 ng/mL (≈ 8.47 to 136 nM) | 3.9 to 62.5 ng/mL (≈ 8.47 to 136 nM) | 3.9 to 62.5 ng/mL (≈ 8.47 to 136 nM) |  |  |  |  |  | O=C(OC1CCN(CC(O)(Cn2cncn2)c2ccc(F)cc2F)CC1)c1cccc(F)c1 (configuration not stated) |
| 3.9 to 62.5 ng/mL (≈ 8.18 to 131 nM) | 3.9 to 62.5 ng/mL (≈ 8.18 to 131 nM) | 3.9 to 62.5 ng/mL (≈ 8.18 to 131 nM) | 3.9 to 62.5 ng/mL (≈ 8.18 to 131 nM) | 3.9 to 62.5 ng/mL (≈ 8.18 to 131 nM) | 3.9 to 62.5 ng/mL (≈ 8.18 to 131 nM) |  |  |  |  |  | O=C(OC1CCN(CC(O)(Cn2cncn2)c2ccc(F)cc2F)CC1)c1ccccc1Cl (configuration not stated) |
| 3.9 to 62.5 ng/mL (≈ 8.18 to 131 nM) | 3.9 to 62.5 ng/mL (≈ 8.18 to 131 nM) | 3.9 to 62.5 ng/mL (≈ 8.18 to 131 nM) | 3.9 to 62.5 ng/mL (≈ 8.18 to 131 nM) | 3.9 to 62.5 ng/mL (≈ 8.18 to 131 nM) | 3.9 to 62.5 ng/mL (≈ 8.18 to 131 nM) |  |  |  |  |  | O=C(OC1CCN(CC(O)(Cn2cncn2)c2ccc(F)cc2F)CC1)c1ccc(Cl)cc1 (configuration not stated) |
| 3.9 to 62.5 ng/mL (≈ 8.18 to 131 nM) | 3.9 to 62.5 ng/mL (≈ 8.18 to 131 nM) | 3.9 to 62.5 ng/mL (≈ 8.18 to 131 nM) | 3.9 to 62.5 ng/mL (≈ 8.18 to 131 nM) | 3.9 to 62.5 ng/mL (≈ 8.18 to 131 nM) | 3.9 to 62.5 ng/mL (≈ 8.18 to 131 nM) |  |  |  |  |  | O=C(OC1CCN(CC(O)(Cn2cncn2)c2ccc(F)cc2F)CC1)c1cccc(Cl)c1 (configuration not stated) |
